Earlier results as cited in patent publication US10231995B2, “Selenium-containing compositions and uses thereof” (SELO MEDICAL GMBH, priority 2001, dated 2019).
Like-named read-outs stand apart in the source and are kept apart here.

For O=[Se](O)O [selenite], the “Eo standard redox potential” value (acidic medium) is listed as −0.740 (acidic medium) Volt and the “Eo standard redox potential” value (basic medium) is listed as “+0.366 (basic medium) Volt”.
